{"source": "patent US12187759B2", "about": "“TLR7 agonists” (Primmune Therapeutics, Inc., priority 2019, dated 2025)", "key": {"human TLR8": {"molecular_target": "T1, human TLR8 (Homo sapiens, UniProt Q9NR97)", "T1 construct": "host or cells: HEK293", "T1 sequence (Q9NR97 27-1041)": "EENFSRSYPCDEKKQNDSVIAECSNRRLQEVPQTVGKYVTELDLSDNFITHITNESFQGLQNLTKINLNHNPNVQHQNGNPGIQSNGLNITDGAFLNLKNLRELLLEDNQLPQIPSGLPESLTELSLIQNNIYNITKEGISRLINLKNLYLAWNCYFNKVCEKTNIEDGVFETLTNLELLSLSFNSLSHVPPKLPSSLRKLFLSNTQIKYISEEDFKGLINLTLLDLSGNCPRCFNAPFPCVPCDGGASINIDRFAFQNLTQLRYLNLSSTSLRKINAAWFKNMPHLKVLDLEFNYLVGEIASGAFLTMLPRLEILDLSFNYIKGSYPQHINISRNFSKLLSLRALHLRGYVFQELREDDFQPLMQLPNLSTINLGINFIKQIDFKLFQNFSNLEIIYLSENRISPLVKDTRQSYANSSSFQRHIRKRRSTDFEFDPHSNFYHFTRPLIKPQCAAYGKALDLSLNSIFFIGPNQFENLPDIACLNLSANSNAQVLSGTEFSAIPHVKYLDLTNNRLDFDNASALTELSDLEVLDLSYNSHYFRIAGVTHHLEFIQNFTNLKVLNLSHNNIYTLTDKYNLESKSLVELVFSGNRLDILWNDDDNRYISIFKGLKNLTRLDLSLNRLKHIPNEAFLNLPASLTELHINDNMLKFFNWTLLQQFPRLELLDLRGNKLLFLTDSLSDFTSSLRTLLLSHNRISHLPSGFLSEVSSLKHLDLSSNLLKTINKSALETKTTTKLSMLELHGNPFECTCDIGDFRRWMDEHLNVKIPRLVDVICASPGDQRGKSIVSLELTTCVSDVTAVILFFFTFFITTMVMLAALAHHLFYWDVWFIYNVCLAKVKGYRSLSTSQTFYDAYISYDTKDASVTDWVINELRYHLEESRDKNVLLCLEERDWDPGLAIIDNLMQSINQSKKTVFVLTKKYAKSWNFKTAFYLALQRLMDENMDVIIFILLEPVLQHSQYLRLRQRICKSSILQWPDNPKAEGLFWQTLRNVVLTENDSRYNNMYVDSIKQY", "assay": "TLR8 reporter cell assay (HEK293 cells stably expressing human TLR8 with NF-κB-driven SEAP reporter)", "assay_type": "cell-based", "conditions": "concentrations up to 500 μM; significant = >5% of ymax", "from_the_text": "The engagement of TLRs by cognate ligands triggers downstream signaling cascades, leading to the activation of NF-κB and other transcription factors which initiate various immunomodulatory effects. The human embryonic kidney cell line, HEK293, is essentially non-responsive to TLR agonists, but ectopic expression of TLRs in these cells allows cognate agonists to activate endogenous NF-κB. Accordingly, the HEK293-TLR-NF-κB inducible reporter system is used to assay TLR agonists.\nHEK293 cell lines stably expressing human TLR7 or TLR8 together with an NF-κB-driven-secreted alkaline phosphatase (SEAP) reporter were invented at InvivoGen (San Diego, California, USA) and used to assess compounds of the present invention for TLR7 and TLR8 agonist activities. Cells were seeded at 2-5×10^4 cells/well in 96 well plates (200 μl/well) and treated with various concentrations of compound (10 μl) for 15-24 hours. SEAP activity was determined by measuring OD at 650 nm; the media used to culture the cell lines contains the reagents required for SEAP detection. […]"}, "[1]": {"system": "hPBMCs (Human Peripheral Blood Mononuclear Cells)", "assay": "Induction of interferon-α in hPBMCs in vitro", "assay_type": "cell-based", "in_short": "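Peripheral blood mononuclear cells from healthy human donors were dispensed into replicate culture wells at 1.0-7.5×10^6 cells per well. They were exposed to test compound for 24 hours at 37° C. in humidified 5% CO2, with untreated wells as controls. Secreted interferon-α was quantified with a multisubtype ELISA or as IFNα2a in a luminex panel. MEC was defined as the lowest concentration giving a significant rise above baseline, generally at least 80 pg/ml. IFNmax was the highest IFN level seen at any tested concentration.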"}}}
{"smiles": "CC[C@H](O)[C@@H]1C[C@@H](O)[C@H](n2c(=O)sc3c(=O)[nH]c(N)nc32)O1", "note": "[Compound A, 5-amino-3-((2R,3R,5S)-3-hydroxy-5-((S)-1-hydroxypropyl)tetrahydrofuran-2-yl)thiazolo[4,5-d]pyrimidine-2,7(3H,6H)-dione, reference compound]", "values": [{"measurement": "activity in TLR8 reporter cell assay (% of ymax for TLR8 as measured at 28.5 μM resiquimod)", "setting": "human TLR8", "value": "> 5 % of ymax"}, {"measurement": "Donor 1 MEC", "setting": "[1]; Donor 1, interferon-α production", "value": "≤3.125", "unit": "µM"}, {"measurement": "Donor 1 IFNmax", "setting": "[1]; Donor 1, maximum IFN at any concentration of the evaluated range", "value": 1061, "unit": "pg/mL"}, {"measurement": "Donor 2 MEC", "setting": "[1]; Donor 2, interferon-α production", "value": "≤3.125", "unit": "µM"}, {"measurement": "Donor 2 IFNmax", "setting": "[1]; Donor 2, maximum IFN at any concentration of the evaluated range", "value": 481, "unit": "pg/mL"}, {"measurement": "Donor 3 MEC", "setting": "[1]; Donor 3, interferon-α production", "value": "≤3.125", "unit": "µM"}, {"measurement": "Donor 3 IFNmax", "setting": "[1]; Donor 3, maximum IFN at any concentration of the evaluated range", "value": 2243, "unit": "pg/mL"}, {"measurement": "Emax", "setting": "[1]; Homo sapiens, PBMC, 24 h, peak IFNα2a as percentage of peak response of standard 2-Amino-7-(cyclopropylmethyl)-9-B-D-xylofuranosyl-7,9-dihydro-1H-purine-6,8-dione, averaged across donors, read-out: IFNrmax, Relative Maximal IFNα2a Production (%)", "value": 103, "unit": "%"}, {"measurement": "minimal effective concentration", "setting": "[1]; Homo sapiens, PBMC, minimal effective concentration for interferon-α production (generally at least 80 pg/ml above baseline), geometric mean across at least three donors, 24 hours, read-out: Weighted MEC", "value": "≤ 3.1", "unit": "µM"}]}
